Experimental data published in ChEMBL document CHEMBL1201862, “PubChem BioAssay data set” (2004).
Active and inactive are the calls of the source. Rule as the data show it, for most assays here: actives have a measured EC50 and inactives only a lower limit.

What was measured:
[1] = molecular target: ATP-dependent molecular chaperone HSP82 (Candida albicans (strain WO-1) (Yeast), UniProt C4YTQ8); experiment: steroid-induced GRE reporter decrease in yeast – S. cerevisiae, luminescence, Hsp90 inhibitor project, dose response (AID 2400); assay type: functional, cell-based;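 also: beta-galactosidase luminescence from glucocorticoid response element reporter as proxy for Hsp90 function; inhibitor potency where signal loss means Hsp90 inhibition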
[2] = fluconazole-exposed Candida albicans growth modulators – fluorescence, retest, confirmation (AID 2467); assay type: functional, cell-based
[3] = NIH-3T3 fibroblast cytotoxicity, dose response, cytotoxicity control, cell-based, fluorescence, Alamar Blue, secondary assay (AID 2327); assay type: functional;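 also: NIH-3T3 mouse fibroblasts cultured with fluconazole at 8 µg/mL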
[4] = Counterscreen for AddAB inhibitors: absorbance-based bacterial cell-based high throughput dose response assay for inhibitors of bacterial viability. [Related pubchem assays (depositor defined):AID435030, AID449728, AID449731, AID488942, AID488955, AID488956]; assay type: functional
[5] = molecular target: T1, Serine/threonine-protein phosphatase (Candida dubliniensis (strain CD36 / CBS 7987 / NCPF 3949 / NRRLY-17841) (Yeast), UniProt B9W6M3); experiment: blockers of CaCl2-induced CDRE-lacZ signaling – S. cerevisiae, luminescence, secondary, dose response (AID 2388); assay type: functional, cell-based;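 also: yeast reporter cells carrying a calcineurin-responsive lacZ construct stimulated with calcium chloride; luminescent beta-galactosidase reporter signal in whole cells rather than isolated phosphatase activity; potency for inhibition where a drop in reporter signal means calcineurin blockade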
T1 sequence (B9W6M3 whole entry): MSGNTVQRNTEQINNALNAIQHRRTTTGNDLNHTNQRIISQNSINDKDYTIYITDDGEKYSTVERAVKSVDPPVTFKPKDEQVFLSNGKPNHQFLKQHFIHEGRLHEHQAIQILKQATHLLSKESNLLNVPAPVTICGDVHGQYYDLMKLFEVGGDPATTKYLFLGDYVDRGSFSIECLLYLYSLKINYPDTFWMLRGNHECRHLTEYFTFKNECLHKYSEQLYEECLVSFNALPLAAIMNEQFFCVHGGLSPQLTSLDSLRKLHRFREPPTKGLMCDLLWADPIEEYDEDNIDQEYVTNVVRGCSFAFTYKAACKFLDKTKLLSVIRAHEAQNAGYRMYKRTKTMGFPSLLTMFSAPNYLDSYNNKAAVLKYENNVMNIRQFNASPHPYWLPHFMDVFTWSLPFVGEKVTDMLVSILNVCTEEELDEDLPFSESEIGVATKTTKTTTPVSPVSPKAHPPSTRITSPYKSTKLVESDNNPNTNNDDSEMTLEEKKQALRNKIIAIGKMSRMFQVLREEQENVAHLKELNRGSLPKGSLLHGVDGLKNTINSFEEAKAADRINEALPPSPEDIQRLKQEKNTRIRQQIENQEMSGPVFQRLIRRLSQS

Exodeoxyribonuclease V = molecular target: T2, Exodeoxyribonuclease V (Escherichia coli (strain K12), UniProt P04993+P07648+P08394); experiment: RecBCD inhibition via phage-restricted bacterial growth – absorbance, V66 E. coli, mutant T4 phage, counter-screen for AddAB inhibitor project, dose response (AID 492957); assay type: functional, cell-based, Escherichia coli str. K-12 substr. MG1655
T2 sequence (P04993 whole entry): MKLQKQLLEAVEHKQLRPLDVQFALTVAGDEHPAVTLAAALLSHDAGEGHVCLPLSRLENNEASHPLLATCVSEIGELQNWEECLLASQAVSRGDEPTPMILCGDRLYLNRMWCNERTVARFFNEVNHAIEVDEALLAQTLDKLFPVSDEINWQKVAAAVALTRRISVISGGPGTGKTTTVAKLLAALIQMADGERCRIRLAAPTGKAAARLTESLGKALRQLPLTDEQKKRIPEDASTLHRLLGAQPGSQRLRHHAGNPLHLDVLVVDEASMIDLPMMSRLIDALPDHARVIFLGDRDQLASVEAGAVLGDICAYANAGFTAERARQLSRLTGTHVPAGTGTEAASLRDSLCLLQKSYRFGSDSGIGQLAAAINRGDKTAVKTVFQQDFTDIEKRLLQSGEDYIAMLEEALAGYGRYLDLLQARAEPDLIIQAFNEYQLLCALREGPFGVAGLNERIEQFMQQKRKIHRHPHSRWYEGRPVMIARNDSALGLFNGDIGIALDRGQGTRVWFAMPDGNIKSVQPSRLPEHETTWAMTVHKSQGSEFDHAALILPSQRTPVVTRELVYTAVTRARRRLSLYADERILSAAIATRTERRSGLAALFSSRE
T2 sequence (P07648 whole entry): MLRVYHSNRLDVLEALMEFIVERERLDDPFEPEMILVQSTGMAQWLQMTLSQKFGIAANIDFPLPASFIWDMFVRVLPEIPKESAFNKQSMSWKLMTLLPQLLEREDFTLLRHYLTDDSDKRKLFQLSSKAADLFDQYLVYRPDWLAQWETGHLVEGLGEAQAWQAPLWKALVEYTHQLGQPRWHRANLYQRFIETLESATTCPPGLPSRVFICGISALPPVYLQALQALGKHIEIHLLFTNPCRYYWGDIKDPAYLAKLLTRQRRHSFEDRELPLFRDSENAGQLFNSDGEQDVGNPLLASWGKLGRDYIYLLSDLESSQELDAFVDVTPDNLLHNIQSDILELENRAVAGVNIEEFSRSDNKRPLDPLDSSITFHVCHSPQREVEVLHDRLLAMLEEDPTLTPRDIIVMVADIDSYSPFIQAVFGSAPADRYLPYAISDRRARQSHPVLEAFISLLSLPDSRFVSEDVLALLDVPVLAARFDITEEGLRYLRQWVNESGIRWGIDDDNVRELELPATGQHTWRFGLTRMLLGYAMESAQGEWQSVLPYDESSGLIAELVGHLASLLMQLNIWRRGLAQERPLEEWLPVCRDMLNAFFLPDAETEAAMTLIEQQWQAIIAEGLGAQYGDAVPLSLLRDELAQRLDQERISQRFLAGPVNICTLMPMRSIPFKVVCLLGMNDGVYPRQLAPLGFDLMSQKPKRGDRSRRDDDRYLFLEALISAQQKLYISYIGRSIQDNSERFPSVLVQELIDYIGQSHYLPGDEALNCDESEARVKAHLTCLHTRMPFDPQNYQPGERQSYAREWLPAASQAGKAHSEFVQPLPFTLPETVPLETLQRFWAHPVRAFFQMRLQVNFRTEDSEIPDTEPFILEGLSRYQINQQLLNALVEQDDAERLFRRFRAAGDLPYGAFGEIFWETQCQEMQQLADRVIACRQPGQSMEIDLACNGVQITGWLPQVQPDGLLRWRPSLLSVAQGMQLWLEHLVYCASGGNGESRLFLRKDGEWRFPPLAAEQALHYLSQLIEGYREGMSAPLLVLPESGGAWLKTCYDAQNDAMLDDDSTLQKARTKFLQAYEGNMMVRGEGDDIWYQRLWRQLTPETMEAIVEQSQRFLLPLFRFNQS
T2 sequence (P08394 whole entry): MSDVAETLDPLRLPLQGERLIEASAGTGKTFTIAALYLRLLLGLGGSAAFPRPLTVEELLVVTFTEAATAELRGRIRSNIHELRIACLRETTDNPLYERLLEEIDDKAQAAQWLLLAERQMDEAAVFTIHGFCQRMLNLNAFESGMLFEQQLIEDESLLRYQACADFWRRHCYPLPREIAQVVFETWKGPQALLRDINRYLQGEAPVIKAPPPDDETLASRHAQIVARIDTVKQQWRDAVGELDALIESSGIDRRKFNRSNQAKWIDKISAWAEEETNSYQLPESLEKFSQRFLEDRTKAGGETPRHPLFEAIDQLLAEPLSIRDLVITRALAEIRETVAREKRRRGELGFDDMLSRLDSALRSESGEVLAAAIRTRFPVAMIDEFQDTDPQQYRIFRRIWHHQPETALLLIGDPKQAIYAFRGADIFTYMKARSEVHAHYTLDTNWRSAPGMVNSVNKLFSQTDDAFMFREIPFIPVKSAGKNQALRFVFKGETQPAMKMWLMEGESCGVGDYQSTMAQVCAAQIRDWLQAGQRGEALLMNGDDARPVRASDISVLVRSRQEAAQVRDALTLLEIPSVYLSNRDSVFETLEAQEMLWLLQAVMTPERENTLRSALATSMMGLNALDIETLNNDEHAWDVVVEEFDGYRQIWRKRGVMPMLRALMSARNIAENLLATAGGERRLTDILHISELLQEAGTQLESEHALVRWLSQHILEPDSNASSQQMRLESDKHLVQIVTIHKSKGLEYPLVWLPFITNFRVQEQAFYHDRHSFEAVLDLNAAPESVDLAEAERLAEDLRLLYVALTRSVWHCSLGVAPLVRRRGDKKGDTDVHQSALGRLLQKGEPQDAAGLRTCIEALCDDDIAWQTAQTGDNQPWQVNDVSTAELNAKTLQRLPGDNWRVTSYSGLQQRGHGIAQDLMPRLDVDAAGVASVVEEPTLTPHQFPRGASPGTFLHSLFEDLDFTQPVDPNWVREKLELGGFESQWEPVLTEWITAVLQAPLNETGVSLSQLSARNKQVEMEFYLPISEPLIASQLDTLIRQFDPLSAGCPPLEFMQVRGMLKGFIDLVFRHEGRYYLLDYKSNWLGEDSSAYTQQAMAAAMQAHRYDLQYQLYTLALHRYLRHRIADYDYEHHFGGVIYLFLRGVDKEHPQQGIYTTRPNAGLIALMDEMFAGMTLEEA

[6] = molecular target: T3, Apoptotic protease-activating factor 1 (Homo sapiens, UniProt O14727); assay type: functional
T3 sequence (O14727 whole entry): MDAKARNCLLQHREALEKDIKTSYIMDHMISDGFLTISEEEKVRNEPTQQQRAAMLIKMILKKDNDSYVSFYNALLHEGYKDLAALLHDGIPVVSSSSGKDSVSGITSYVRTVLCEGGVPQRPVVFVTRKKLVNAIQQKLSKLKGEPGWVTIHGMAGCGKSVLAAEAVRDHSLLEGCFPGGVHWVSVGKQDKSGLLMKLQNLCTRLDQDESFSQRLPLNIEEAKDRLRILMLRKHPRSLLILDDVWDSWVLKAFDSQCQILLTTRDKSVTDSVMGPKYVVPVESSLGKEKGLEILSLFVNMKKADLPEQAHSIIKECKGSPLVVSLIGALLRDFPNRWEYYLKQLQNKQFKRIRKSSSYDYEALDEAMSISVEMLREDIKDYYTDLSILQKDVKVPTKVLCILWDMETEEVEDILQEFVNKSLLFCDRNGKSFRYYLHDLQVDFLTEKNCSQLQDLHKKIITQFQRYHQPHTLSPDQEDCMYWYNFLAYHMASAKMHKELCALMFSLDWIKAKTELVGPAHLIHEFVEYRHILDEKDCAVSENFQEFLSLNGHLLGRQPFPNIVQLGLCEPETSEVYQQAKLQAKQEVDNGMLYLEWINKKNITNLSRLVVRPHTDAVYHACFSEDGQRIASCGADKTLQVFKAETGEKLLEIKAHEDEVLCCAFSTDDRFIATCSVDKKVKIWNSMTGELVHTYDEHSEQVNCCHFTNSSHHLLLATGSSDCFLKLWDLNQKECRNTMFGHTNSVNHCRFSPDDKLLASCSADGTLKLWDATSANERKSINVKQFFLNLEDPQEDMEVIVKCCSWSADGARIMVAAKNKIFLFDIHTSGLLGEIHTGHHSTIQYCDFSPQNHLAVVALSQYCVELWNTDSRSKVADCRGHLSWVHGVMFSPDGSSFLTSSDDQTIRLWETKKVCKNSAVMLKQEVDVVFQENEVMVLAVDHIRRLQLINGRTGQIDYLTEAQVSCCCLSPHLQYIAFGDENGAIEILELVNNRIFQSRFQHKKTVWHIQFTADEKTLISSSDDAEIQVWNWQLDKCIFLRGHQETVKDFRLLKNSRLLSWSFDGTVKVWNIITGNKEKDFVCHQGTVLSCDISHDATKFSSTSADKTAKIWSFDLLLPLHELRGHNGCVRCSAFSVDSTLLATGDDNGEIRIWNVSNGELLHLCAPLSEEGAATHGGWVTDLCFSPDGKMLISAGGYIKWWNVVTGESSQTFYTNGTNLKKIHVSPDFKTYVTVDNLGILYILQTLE

Chain of ATP-dependent molecular chaperone HSP82 (C4YTQ8 whole entry): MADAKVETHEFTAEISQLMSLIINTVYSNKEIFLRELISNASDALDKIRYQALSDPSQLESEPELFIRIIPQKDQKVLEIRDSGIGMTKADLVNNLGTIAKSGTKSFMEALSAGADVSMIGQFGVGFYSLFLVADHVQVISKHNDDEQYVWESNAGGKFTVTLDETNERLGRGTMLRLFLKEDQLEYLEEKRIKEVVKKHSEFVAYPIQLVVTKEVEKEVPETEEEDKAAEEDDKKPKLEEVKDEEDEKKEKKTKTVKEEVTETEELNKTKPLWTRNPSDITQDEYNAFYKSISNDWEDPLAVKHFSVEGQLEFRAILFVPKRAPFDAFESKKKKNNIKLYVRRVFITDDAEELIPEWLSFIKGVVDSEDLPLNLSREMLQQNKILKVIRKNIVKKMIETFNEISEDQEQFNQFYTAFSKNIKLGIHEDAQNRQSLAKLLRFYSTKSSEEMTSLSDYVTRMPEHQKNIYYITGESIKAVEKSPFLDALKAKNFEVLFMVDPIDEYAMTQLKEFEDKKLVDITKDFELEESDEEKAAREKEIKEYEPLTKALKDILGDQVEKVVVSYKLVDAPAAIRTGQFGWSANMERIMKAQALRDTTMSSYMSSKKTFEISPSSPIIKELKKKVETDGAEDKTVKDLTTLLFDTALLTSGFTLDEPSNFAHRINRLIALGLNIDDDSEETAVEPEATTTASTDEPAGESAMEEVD

For `CC(=O)NC1CCCN(O)C(=O)/C=C(\C)CCOC(=O)C(NC(C)=O)CCCN(O)C(=O)/C=C(\C)CCOC(=O)C(NC(C)=O)CCCN(O)C(=O)/C=C(\C)CCOC1=O` (configuration not stated), the EC50 [1] was > 160 µM (inactive), the EC50 [2] was 742 nM (active) and the EC50 [3] was > 160 µM (inactive). For the same compound, the IC50 [4] was > 119 µM (inactive), the EC50 [5] was > 180 µM (inactive) and the IC50 (Exodeoxyribonuclease V) was > 119 µM (inactive).
In the case of `COc1ccc(CC(=O)N(Cc2ccccc2)c2ccc(C)cc2)cc1S(=O)(=O)N1CCOCC1`, the IC50 [6] is reported as 43.7 µM (active).
